The record followed here is ChEMBL document CHEMBL1148023, “Synthesis and antibacterial activity of derivatives of 6-O-allylic acylides” (2007).

The MIC is the smallest concentration in the dilution series that meets the test's criterion for growth inhibition.

In brackets after ≈: the same amount, converted by molar mass.

Format in all cases: functional
For assay [1], the system named is Streptococcus pyogenes. The assay is described as follows: Antibacterial activity against erythromycin-susceptible Streptococcus pyogenes 01-740 by broth microdilution method. Background: In broth dilution the organism is exposed to a series of concentrations in liquid medium.
In assay [2] the test system is Streptococcus pneumoniae. As to the kind of experiment: Antibacterial activity against erythromycin-resistant Streptococcus pneumoniae 03-436 by broth microdilution method.
Assay [3] concerns Staphylococcus aureus. As to the kind of experiment: Antibacterial activity against methicillin-sensitive Staphylococcus aureus 01-431 by broth microdilution method.
The subject of assay [4] is Staphylococcus epidermidis. As to the kind of experiment: Antibacterial activity against methicillin-sensitive Staphylococcus epidermidis 01-1005 by broth microdilution method.
The test system of assay [5] is Staphylococcus aureus. The assay is described as follows: Antibacterial activity against methicillin-resistant Staphylococcus aureus 01-429 by broth microdilution method.
The subject of assay [6] is Streptococcus pneumoniae. The assay is described as follows: Antibacterial activity against erythromycin-resistant Streptococcus pneumoniae 03-458 by broth microdilution method.
Assay [7] has as its system Staphylococcus epidermidis. The assay is described as follows: Antibacterial activity against methicillin-sensitive Staphylococcus epidermidis 01-1004 by broth microdilution method.
Assay [8] has as its system Staphylococcus epidermidis. As to the kind of experiment: Antibacterial activity against methicillin-sensitive Staphylococcus epidermidis 01-1091 by broth microdilution method.
Assay [9] relates to Staphylococcus epidermidis. As to the kind of experiment: Antibacterial activity against methicillin-resistant Staphylococcus epidermidis 01-1059 by broth microdilution method.
For assay [10], the system named is Staphylococcus aureus. The assay is described as follows: Antibacterial activity against methicillin-resistant Staphylococcus aureus 01-483 by broth microdilution method.
Assay [11] concerns Staphylococcus aureus. The assay is described as follows: Antibacterial activity against methicillin-sensitive Staphylococcus aureus 01-430 by broth microdilution method.
Assay [12] concerns Staphylococcus epidermidis. The assay is described as follows: Antibacterial activity against methicillin-resistant Staphylococcus epidermidis 01-1056 by broth microdilution method.
Assay [13] has as its system Streptococcus pneumoniae. As to the kind of experiment: Antibacterial activity against Streptococcus pneumoniae ATCC 49619 by broth microdilution method.
Assay [14] relates to Streptococcus pneumoniae. As to the kind of experiment: Antibacterial activity against erythromycin-resistant Streptococcus pneumoniae 03-451 by broth microdilution method.
Assay [15] deals with Staphylococcus epidermidis. As to the kind of experiment: Antibacterial activity against methicillin-resistant Staphylococcus epidermidis 01-1090 by broth microdilution method.
The test system of assay [16] is Streptococcus pyogenes. The assay is described as follows: Antibacterial activity against erythromycin-susceptible Streptococcus pyogenes 01-804 by broth microdilution method.
In assay [17] the test system is Streptococcus pyogenes. The assay is described as follows: Antibacterial activity against erythromycin-resistant Streptococcus pyogenes 03-680 by broth microdilution method.
Assay [18] deals with Streptococcus pyogenes. The assay is described as follows: Antibacterial activity against erythromycin-susceptible Streptococcus pyogenes 01-469 by broth microdilution method.
Assay [19] has as its system Staphylococcus aureus. The assay is described as follows: Antibacterial activity against methicillin-sensitive Staphylococcus aureus 01-481 by broth microdilution method.
The subject of assay [20] is Staphylococcus aureus. As to the kind of experiment: Antibacterial activity against methicillin-resistant Staphylococcus aureus 01-433 by broth microdilution method.

For the compound `C=CCO[C@@H]1C[C@@H](C)C(=O)[C@H](C)[C@H]2OC(=O)O[C@]2(C)[C@@H](CC)OC(=O)[C@H](C)[C@@H](OC(=O)CCc2c[nH]c3ccccc23)[C@H](C)[C@H]1O[C@@H]1O[C@H](C)C[C@H](N(C)C)[C@H]1O`, the MIC in the assay on Streptococcus pyogenes [1] was determined as 1 µg/mL (≈ 1.25 µM); with Streptococcus pneumoniae [2], 32 µg/mL (≈ 40.1 µM); with Staphylococcus aureus [3], 32 µg/mL (≈ 40.1 µM); in assay [4], 32 µg/mL (≈ 40.1 µM); in the assay on Staphylococcus aureus [5] it was 32 µg/mL (≈ 40.1 µM); against Streptococcus pneumoniae [6], 32 µg/mL (≈ 40.1 µM). Also, the minimal inhibitory concentration (MIC) (in assay [7]; in assay [8]; in [9]; with Staphylococcus aureus [10]; in the assay with Staphylococcus aureus [11]; in assay [12]) was 32 µg/mL (≈ 40.1 µM) in each case. Besides, the MIC was 4 µg/mL (≈ 5.01 µM) in the assay on Streptococcus pneumoniae [13]; 32 µg/mL (≈ 40.1 µM) in the assay on Streptococcus pneumoniae [14]; 32 µg/mL (≈ 40.1 µM) in assay [15]; 1 µg/mL (≈ 1.25 µM) against Streptococcus pyogenes [16]; 32 µg/mL (≈ 40.1 µM) in the assay with Streptococcus pyogenes [17]; 1 µg/mL (≈ 1.25 µM) in the assay on Streptococcus pyogenes [18]. In addition, the MIC with Staphylococcus aureus [19] and with Staphylococcus aureus [20] was 32 µg/mL (≈ 40.1 µM) throughout.
Regarding `C=CCO[C@@H]1C[C@@H](C)C(=O)[C@H](C)[C@H]2OC(=O)O[C@]2(C)[C@@H](CC)OC(=O)[C@H](C)[C@@H](OC(=O)Cc2ccc3c(c2)OCO3)[C@H](C)[C@H]1O[C@@H]1O[C@H](C)C[C@H](N(C)C)[C@H]1O`, the minimal inhibitory concentration (MIC) in the assay with Streptococcus pyogenes [1] was found to be 0.016 µg/mL (≈ 0.0203 µM); with Streptococcus pneumoniae [2] it was 8 µg/mL (≈ 10.1 µM); in the assay with Staphylococcus aureus [3], 0.5 µg/mL (≈ 0.633 µM); in assay [4], 0.5 µg/mL (≈ 0.633 µM); against Staphylococcus aureus [5], 32 µg/mL (≈ 40.5 µM); with Streptococcus pneumoniae [6], 2 µg/mL (≈ 2.53 µM). The MIC is 0.5 µg/mL (≈ 0.633 µM) in [7]; 0.5 µg/mL (≈ 0.633 µM) in [8]; 1 µg/mL (≈ 1.27 µM) in [9]; 1 µg/mL (≈ 1.27 µM) in the assay on Staphylococcus aureus [10]; 0.5 µg/mL (≈ 0.633 µM) against Staphylococcus aureus [11]; 32 µg/mL (≈ 40.5 µM) in assay [12]. Besides, the MIC against Streptococcus pneumoniae [13] amounted to 0.062 µg/mL (≈ 0.0785 µM); with Streptococcus pneumoniae [14], 4 µg/mL (≈ 5.06 µM); in [15], 1 µg/mL (≈ 1.27 µM); against Streptococcus pyogenes [16], 0.031 µg/mL (≈ 0.0392 µM); against Streptococcus pyogenes [17], 16 µg/mL (≈ 20.3 µM); with Streptococcus pyogenes [18] it was 0.016 µg/mL (≈ 0.0203 µM). The MIC in the assay on Staphylococcus aureus [19] is 1 µg/mL (≈ 1.27 µM); against Staphylococcus aureus [20] it was 32 µg/mL (≈ 40.5 µM).
With `CC[C@H]1OC(=O)[C@H](C)[C@@H](O[C@H]2C[C@@](C)(OC)[C@@H](O)[C@H](C)O2)[C@H](C)[C@@H](O[C@@H]2O[C@H](C)C[C@H](N(C)C)[C@H]2O)[C@](C)(OC)C[C@@H](C)C(=O)[C@H](C)[C@@H](O)[C@]1(C)O` [CLARITHROMYCIN], the MIC in the assay with Streptococcus pyogenes [1] was determined as 0.062 µg/mL (≈ 0.0829 µM); with Streptococcus pneumoniae [2], 128 µg/mL (≈ 171 µM); in the assay on Staphylococcus aureus [3] it was 0.25 µg/mL (≈ 0.334 µM); in [4], 0.125 µg/mL (≈ 0.167 µM); in the assay with Staphylococcus aureus [5], 256 µg/mL (≈ 342 µM); against Streptococcus pneumoniae [6], 256 µg/mL (≈ 342 µM). The MIC in assay [7] worked out at 0.125 µg/mL (≈ 0.167 µM); in assay [8], 0.125 µg/mL (≈ 0.167 µM); in [9], 256 µg/mL (≈ 342 µM); against Staphylococcus aureus [10], 256 µg/mL (≈ 342 µM); with Staphylococcus aureus [11], 0.25 µg/mL (≈ 0.334 µM); in [12], 256 µg/mL (≈ 342 µM). Further, the MIC was determined as 0.25 µg/mL (≈ 0.334 µM) in the assay with Streptococcus pneumoniae [13]; 32 µg/mL (≈ 42.8 µM) against Streptococcus pneumoniae [14]; 256 µg/mL (≈ 342 µM) in [15]; 0.125 µg/mL (≈ 0.167 µM) with Streptococcus pyogenes [16]; 256 µg/mL (≈ 342 µM) against Streptococcus pyogenes [17]; 0.062 µg/mL (≈ 0.0829 µM) against Streptococcus pyogenes [18]. Besides, the MIC against Staphylococcus aureus [19] turned out to be 0.5 µg/mL (≈ 0.668 µM); against Staphylococcus aureus [20], 256 µg/mL (≈ 342 µM).
Take `C=CCO[C@@H]1C[C@@H](C)C(=O)[C@H](C)[C@H]2OC(=O)O[C@]2(C)[C@@H](CC)OC(=O)[C@H](C)[C@@H](OC(=O)Cc2cccc(F)c2)[C@H](C)[C@H]1O[C@@H]1O[C@H](C)C[C@H](N(C)C)[C@H]1O`: the MIC against Streptococcus pyogenes [1] was 0.125 µg/mL (≈ 0.164 µM); in the assay on Streptococcus pneumoniae [2], 8 µg/mL (≈ 10.5 µM); in the assay with Staphylococcus aureus [3], 1 µg/mL (≈ 1.31 µM); in assay [4] it was 1 µg/mL (≈ 1.31 µM); against Staphylococcus aureus [5], 16 µg/mL (≈ 20.9 µM); with Streptococcus pneumoniae [6], 2 µg/mL (≈ 2.62 µM). The MIC in [7] came to 1 µg/mL (≈ 1.31 µM); in [8] it was 1 µg/mL (≈ 1.31 µM); in assay [9], 2 µg/mL (≈ 2.62 µM); with Staphylococcus aureus [10], 2 µg/mL (≈ 2.62 µM); with Staphylococcus aureus [11], 1 µg/mL (≈ 1.31 µM); in [12], 32 µg/mL (≈ 41.9 µM). Further, the MIC in the assay with Streptococcus pneumoniae [13] was 0.125 µg/mL (≈ 0.164 µM); with Streptococcus pneumoniae [14], 4 µg/mL (≈ 5.24 µM); in assay [15] it was 1 µg/mL (≈ 1.31 µM); in the assay on Streptococcus pyogenes [16] it was 0.125 µg/mL (≈ 0.164 µM); against Streptococcus pyogenes [17] it was 16 µg/mL (≈ 20.9 µM); in the assay with Streptococcus pyogenes [18], 0.125 µg/mL (≈ 0.164 µM). In addition, the values for the MIC against Staphylococcus aureus [19] and with Staphylococcus aureus [20] were 2 µg/mL (≈ 2.62 µM) and 16 µg/mL (≈ 20.9 µM), respectively.
